Experiments:
Type in all cases: in vivo
[1] = tested on: Galium (catchweed bedstraw, Galium aparine); test: Test A postemergence
Source text: (§1) Seeds of plant species selected from barnyardgrass (Echinochloa crus-galli), Kochia (Kochia scoparia), ragweed (common ragweed, Ambrosia elatior), ryegrass, Italian (Italian ryegrass, Lolium multiflorum), crabgrass, large (Digitaria sanguinalis), giant foxtail (Setaria faberii), green foxtail (Setaria viridis), morningglory (Ipomoea spp.), pigweed (Amaranthus retroflexus), velvetleaf (Abutilon theophrasti), wheat (Triticum aestivum), and corn (Zea mays) were planted into a blend of loam soil and sand and treated preemergence with a directed soil spray using test chemicals formulated in anon-phytotoxic solvent mixture which included a surfactant.
(§2) At the same time, plants selected from these crop and weed species and also blackgrass (Alopecurus myosuroides), and Galium (catchweed bedstraw, Galium aparine) were planted in pots containing the same blend of loam soil and sand and treated with postemergence applications of test chemicals formulated in the same manner. Plants ranged in height from 2 to 10 cm and were in the one- to two-leaf stage for the postemergence treatment. Treated plants and untreated controls were maintained in a greenhouse for approximately 10 d, after which time all treated plants were compared to untreated controls and visually evaluated for injury. Plant response ratings, summarized in Table A, are based on a 0 to 100 scale where 0 is no effect and 100 is complete control. A dash (-) response means no test result.

[2] = tested on: ragweed (common ragweed, Ambrosia elatior); test: Test A postemergence
Source text: as §1, §2

[3] = tested on: pigweed (Amaranthus retroflexus); test: Test A postemergence
Source text: as §1, §2

[4] = tested on: giant foxtail (Setaria faberii); test: Test A postemergence
Source text: as §1, §2

[5] = tested on: barnyardgrass (Echinochloa crus-galli); test: Test A postemergence
Source text: as §1, §2

[6] = tested on: Kochia (Kochia scoparia); test: Test A postemergence
Source text: as §1, §2

[7] = tested on: wheat (Triticum aestivum); test: Test A postemergence
Source text: as §1, §2

[8] = tested on: ryegrass, Italian (Italian ryegrass, Lolium multiflorum); test: Test A postemergence
Source text: as §1, §2

[9] = tested on: corn (Zea mays); test: Test A postemergence
Source text: as §1, §2

[10] = tested on: blackgrass (Alopecurus myosuroides); test: Test A postemergence
Source text: as §1, §2

[11] = tested on: barnyardgrass (Echinochloa crus-galli); test: Test B flooded paddy test; conditions: Flood, 250 g ai/ha; 0 to 100 scale where 0 is no effect and 100 is complete control; 13 to 15 d
In short: (§3)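 Rating scale 0–100 (visual, vs untreated controls) after a 13–15 d greenhouse period; application to the flood layer, 3 cm above soil and maintained; plants at 2-leaf stage when treated.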

[12] = tested on: ducksalad (Heteranthera limosa); test: Test B flooded paddy test; conditions: Flood, 250 g ai/ha; 0 to 100 scale where 0 is no effect and 100 is complete control; 13 to 15 d
In short: as §3

[13] = tested on: sedge, umbrella (small-flower umbrella sedge, Cyperus difformis); test: Test B flooded paddy test; conditions: Flood, 250 g ai/ha; 0 to 100 scale where 0 is no effect and 100 is complete control; 13 to 15 d
In short: as §3

[14] = tested on: rice (Oryra sativa); test: Test B flooded paddy test; conditions: Flood, 250 g ai/ha; 0 to 100 scale where 0 is no effect and 100 is complete control; 13 to 15 d
In short: as §3

[15] = tested on: ragweed (common ragweed, Ambrosia elatior); test: Test A preemergence; conditions: Preemergence; for Plant response rating, Ragweed: 125 g ai/ha, visual injury after approximately 10 d, 0 to 100 scale where 0 is no effect and 100 is complete control; for Ragweed plant response rating (0 to 100 scale, 0 is no effect, 100 is complete control): 500 g ai/ha, visual injury approx. 10 d
Source text: as §1, §2

[16] = tested on: pigweed (Amaranthus retroflexus); test: Test A preemergence; conditions: Preemergence; for Plant response rating, Pigweed: 125 g ai/ha, visual injury after approximately 10 d, 0 to 100 scale where 0 is no effect and 100 is complete control; for Pigweed plant response rating (0 to 100 scale, 0 is no effect, 100 is complete control): 500 g ai/ha, visual injury approx. 10 d
Source text: as §1, §2

[17] = tested on: giant foxtail (Setaria faberii); test: Test A preemergence; conditions: Preemergence; for Plant response rating, Foxtail, Giant: 125 g ai/ha, visual injury after approximately 10 d, 0 to 100 scale where 0 is no effect and 100 is complete control; for Foxtail, Giant plant response rating (0 to 100 scale, 0 is no effect, 100 is complete control): 500 g ai/ha, visual injury approx. 10 d
Source text: as §1, §2

[18] = tested on: barnyardgrass (Echinochloa crus-galli); test: Test A preemergence; conditions: Preemergence; for Plant response rating, Barnyardgrass: 125 g ai/ha, visual injury after approximately 10 d, 0 to 100 scale where 0 is no effect and 100 is complete control; for Barnyardgrass plant response rating (0 to 100 scale, 0 is no effect, 100 is complete control): 500 g ai/ha, visual injury approx. 10 d
Source text: as §1, §2

[19] = tested on: Kochia (Kochia scoparia); test: Test A preemergence; conditions: Preemergence; for Plant response rating, Kochia: 125 g ai/ha, visual injury after approximately 10 d, 0 to 100 scale where 0 is no effect and 100 is complete control; for Kochia plant response rating (0 to 100 scale, 0 is no effect, 100 is complete control): 500 g ai/ha, visual injury approx. 10 d
Source text: as §1, §2

[20] = tested on: ryegrass, Italian (Italian ryegrass, Lolium multiflorum); test: Test A preemergence; conditions: Preemergence; for Plant response rating, Ryegrass, Italian: 125 g ai/ha, visual injury after approximately 10 d, 0 to 100 scale where 0 is no effect and 100 is complete control; for Ryegrass, Italian plant response rating (0 to 100 scale, 0 is no effect, 100 is complete control): 500 g ai/ha, visual injury approx. 10 d
Source text: as §1, §2

[21] = 125 g ai/ha, postemergence, visual rating after approx. 10 d, 0 to 100 scale (0 no effect, 100 complete control)
[22] = Postemergence, 500 g ai/ha, 0 to 100 scale where 0 is no effect and 100 is complete control

Row | SMILES | Plant response rating, Galium [1, 21] | Plant response rating, Galium [1, 22] | Plant response rating, Ragweed [2, 21] | Plant response rating, Ragweed [2, 22] | Plant response rating, Pigweed [3, 21] | Plant response rating, Pigweed [3, 22] | Plant response rating, Foxtail, Giant [4, 21] | Plant response rating, Foxtail, Giant [4, 22] | Plant response rating, Barnyardgrass [5, 21] | Plant response rating, Barnyardgrass [5, 22] | Plant response rating, Kochia [6, 21] | Plant response rating, Kochia [6, 22] | Plant response rating, Wheat [7, 21] | Plant response rating, Wheat [7, 22] | Plant response rating, Ryegrass, Italian [8, 21] | Plant response rating, Ryegrass, Italian [8, 22] | Plant response rating, Corn [9, 21] | Plant response rating, Corn [9, 22] | Plant response rating, Blackgrass [10, 21] | Plant response rating, Blackgrass [10, 22] | further results
1 | O=C1NCC(c2cc(F)ccc2F)C1C(=O)Nc1cccc(F)c1F (racemic) [Compound 546] | 0 | 0 | 0 | 0 | 0 | 0 | 70 | 90 | 80 | 90 | 0 | 0 | 0 | 0 | 0 | 0 | 0 | 20 | 0 | 20 | Plant response rating, Barnyardgrass [11]: 70; Plant response rating, Ducksalad [12]: 85; Plant response rating, Sedge, Umbrella [13]: 0; Plant response rating, Rice [14]: 20; Plant response rating, Ragweed [15]: 0; Ragweed plant response rating (0 to 100 scale, 0 is no effect, 100 is complete control) [15]: 0; Plant response rating, Pigweed [16]: 0; Pigweed plant response rating (0 to 100 scale, 0 is no effect, 100 is complete control) [16]: 0; Plant response rating, Foxtail, Giant [17]: 90; Foxtail, Giant plant response rating (0 to 100 scale, 0 is no effect, 100 is complete control) [17]: 90; Plant response rating, Barnyardgrass [18]: 80; Barnyardgrass plant response rating (0 to 100 scale, 0 is no effect, 100 is complete control) [18]: 90; Plant response rating, Kochia [19]: 0; Kochia plant response rating (0 to 100 scale, 0 is no effect, 100 is complete control) [19]: 0; Plant response rating, Ryegrass, Italian [20]: 0; Ryegrass, Italian plant response rating (0 to 100 scale, 0 is no effect, 100 is complete control) [20]: 0
2 | O=C1NCC(c2cc(F)c(F)cc2F)C1C(=O)Nc1ccccc1F (racemic) [Compound 549] | 0 | 0 | 0 | 0 | 0 | 0 | 20 | 90 | 40 | 90 | 0 | 20 | 0 | 20 | 0 | 0 | 0 | 0 | 0 | 20 | Plant response rating, Barnyardgrass [11]: 25; Plant response rating, Ducksalad [12]: 90; Plant response rating, Sedge, Umbrella [13]: 0; Plant response rating, Rice [14]: 0; Plant response rating, Ragweed [15]: 0; Ragweed plant response rating (0 to 100 scale, 0 is no effect, 100 is complete control) [15]: 0; Plant response rating, Pigweed [16]: 0; Pigweed plant response rating (0 to 100 scale, 0 is no effect, 100 is complete control) [16]: 0; Plant response rating, Foxtail, Giant [17]: 90; Foxtail, Giant plant response rating (0 to 100 scale, 0 is no effect, 100 is complete control) [17]: 90; Plant response rating, Barnyardgrass [18]: 40; Barnyardgrass plant response rating (0 to 100 scale, 0 is no effect, 100 is complete control) [18]: 80; Plant response rating, Kochia [19]: 0; Kochia plant response rating (0 to 100 scale, 0 is no effect, 100 is complete control) [19]: 0; Plant response rating, Ryegrass, Italian [20]: 0; Ryegrass, Italian plant response rating (0 to 100 scale, 0 is no effect, 100 is complete control) [20]: 0
